Laboratory results published in patent US8314129B2, “Optical isomers of an iloperidone metabolite” (Novartis AG, priority 2004, dated 2012).

Assays:
[1] = higher than parent drug iloperidone; cited from earlier work
[2] = target: adrenergic α1 receptors; test: radioligand binding, adrenergic α1 receptor; details: standard radioligand binding; human recombinant receptors and native rat brain receptors
Experimental: (§1) Receptor affinity is determined with standard radioligand binding techniques, using human recombinant receptors and native rat brain receptors. Blockade of dopamine D2 and noradrenergic α2c receptors is tested in cell-lines using luciferase reporter gene assays based on 2nd messenger responses.

[3] = target: T1, adrenergic α2c receptors (Homo sapiens, UniProt P18825); test: radioligand binding, adrenergic α2c receptor; details: standard radioligand binding; human recombinant receptors and native rat brain receptors; read-out: affinity for adrenergic α2c receptors (pKi) (converted)
T1 sequence (P18825 1-462): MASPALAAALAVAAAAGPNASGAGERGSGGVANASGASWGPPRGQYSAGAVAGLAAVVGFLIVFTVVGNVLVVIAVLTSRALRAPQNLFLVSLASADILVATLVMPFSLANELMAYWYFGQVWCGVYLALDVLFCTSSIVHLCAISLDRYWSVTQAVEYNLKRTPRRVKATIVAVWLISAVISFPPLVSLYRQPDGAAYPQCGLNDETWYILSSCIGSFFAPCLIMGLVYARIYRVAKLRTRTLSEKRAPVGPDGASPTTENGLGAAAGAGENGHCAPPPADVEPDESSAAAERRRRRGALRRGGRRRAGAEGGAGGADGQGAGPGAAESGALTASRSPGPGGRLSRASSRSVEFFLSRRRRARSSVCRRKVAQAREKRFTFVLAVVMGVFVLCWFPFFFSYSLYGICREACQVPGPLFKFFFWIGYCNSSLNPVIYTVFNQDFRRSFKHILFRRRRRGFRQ
Experimental: as §1

[4] = target: 5HT2A receptors (Homo sapiens, UniProt P28223); test: radioligand binding, 5HT2A receptor; details: standard radioligand binding; human recombinant receptors and native rat brain receptors; read-out: affinity for 5HT2A receptors (pKi) (converted)
5HT2A receptors, sequence (P28223 whole entry): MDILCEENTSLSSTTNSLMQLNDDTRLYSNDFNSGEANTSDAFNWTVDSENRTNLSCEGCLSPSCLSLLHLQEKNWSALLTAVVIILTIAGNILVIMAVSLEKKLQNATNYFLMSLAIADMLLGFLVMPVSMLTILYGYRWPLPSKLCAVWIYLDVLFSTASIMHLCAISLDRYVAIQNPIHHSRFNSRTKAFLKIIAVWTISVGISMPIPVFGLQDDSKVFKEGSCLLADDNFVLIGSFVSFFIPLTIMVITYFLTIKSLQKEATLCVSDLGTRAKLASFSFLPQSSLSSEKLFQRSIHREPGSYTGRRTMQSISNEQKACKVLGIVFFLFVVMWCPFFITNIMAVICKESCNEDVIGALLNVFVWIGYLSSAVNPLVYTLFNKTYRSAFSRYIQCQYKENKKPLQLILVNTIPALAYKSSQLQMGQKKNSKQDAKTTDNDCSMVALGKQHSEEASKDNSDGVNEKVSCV
Experimental: as §1

[5] = target: 5HT6 receptors (Homo sapiens, UniProt P50406); test: radioligand binding, 5HT6 receptor; details: standard radioligand binding; human recombinant receptors and native rat brain receptors; read-out: affinity for 5HT6 receptors (pKi) (converted)
5HT6 receptors, sequence (P50406 whole entry): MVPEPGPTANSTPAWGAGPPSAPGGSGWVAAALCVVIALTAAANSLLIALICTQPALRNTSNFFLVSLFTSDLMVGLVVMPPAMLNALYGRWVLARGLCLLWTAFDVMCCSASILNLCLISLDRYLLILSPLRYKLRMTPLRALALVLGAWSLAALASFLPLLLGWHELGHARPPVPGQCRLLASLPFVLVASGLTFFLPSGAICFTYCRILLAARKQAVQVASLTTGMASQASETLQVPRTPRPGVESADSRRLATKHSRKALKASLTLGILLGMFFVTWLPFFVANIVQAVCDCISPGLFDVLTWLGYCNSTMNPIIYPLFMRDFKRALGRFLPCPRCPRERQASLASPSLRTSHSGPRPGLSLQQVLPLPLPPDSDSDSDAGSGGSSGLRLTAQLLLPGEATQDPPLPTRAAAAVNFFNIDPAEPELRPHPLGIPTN
Experimental: as §1

[6] = metabolite formation in humans following administration of iloperidone; assay type: in vivo, human
Text: P-88-8991 consists of a mixture of two enantiomers which have never been disclosed in the literature.

| Structure (SMILES) | plasma levels in human relative to the parent drug [1] | affinity for adrenergic α1 receptors (pKi) [2] | Ki [3] [nM] | Ki [4] [nM] | Ki [5] [nM] | stereospecific formation of P-88-8991 enantiomer [6] |
| --- | --- | --- | --- | --- | --- | --- |
| COc1cc(C(C)O)ccc1OCCCN1CCC(c2noc3cc(F)ccc23)CC1 (racemic) [P-88-8991] | about 1.5 fold |  |  |  |  |  |
| COc1cc([C@H](C)O)ccc1OCCCN1CCC(c2noc3cc(F)ccc23)CC1 [formula I, (S)-1-(4-{3-[4-(6-fluoro-benzo[d]isoxazol-3-yl)-piperidin-1-yl]-propoxy}-3-methoxy-phenyl)-ethanol] |  | 8.9 | 15.8 | 1.26 | 7.94 |  |
| COc1cc([C@@H](C)O)ccc1OCCCN1CCC(c2noc3cc(F)ccc23)CC1 [formula II, (R)-1-(4-{3-[4-(6-fluoro-benzo[d]isoxazol-3-yl)-piperidin-1-yl]propoxy}-3-methoxy-phenyl}-ethanol] |  | 9.2 | 20 | 1.26 | 15.8 |  |
| COc1cc(C(C)=O)ccc1OCCCN1CCC(c2noc3cc(F)ccc23)CC1 [iloperidone, 1-(4-{3-[4-(6-fluoro-benzo[d]isoxazol-3-yl)piperidin-1-yl]propoxy}-3-methoxy-phenyl)-ethanone] |  |  |  |  |  | humans produce only one enantiomer stereospecifically |
